Laboratory results as given in publication PMC10017709, “Structural basis of selective cannabinoid CB2 receptor activation” (Nature Communications, 2023).
Where “and” joins values, the source holds several entries; their conditions need not be identical. Equal values may be shown once.

Legend:
CB1R-L359^6.51V = CB1R-L359^6.51V (Homo sapiens, UniProt P21554, L359V); assay: [35S]GTPγS assay, CB1R L359V mutant; type: biochemical
CB2R-S285^7.39A = CB2R-S285^7.39A (Homo sapiens, UniProt P34972, S285A); assay: [35S]GTPγS assay, CB2R S285A mutant; type: biochemical; details: S285A mutant
CB2R-Quadruple^TM1,7 = CB2R-Quadruple^TM1,7 (Homo sapiens, UniProt P34972, C40S/K279T/K33Q/V36I); assay: [3H]CP55,940 displacement assay, CB2R quadruple mutant; type: binding; details: for percentage specific [3H]CP55,940 binding: QuadrupleTM1,7, individual replicates
CB2R-E181^ECL2D = CB2R-E181^ECL2D (Homo sapiens, UniProt P34972, E181D); assay: [35S]GTPγS assay, CB2R E181D mutant; type: biochemical; details: E181D mutant
hCB1R WT [1] = target: T1, hCB1R WT (Homo sapiens, UniProt P21554); assay: [35S]GTPγS G protein activation assay, CB1R WT; type: biochemical; details: CB1R WT
hCB1R WT [2] = target: T1, hCB1R WT; assay: [3H]CP55,940 displacement assay, CB1R WT; type: binding
CB1R I267ECL2L = CB1R I267ECL2L (Homo sapiens, UniProt P21554, I267L); assay: [3H]CP55,940 displacement assay, CB1R I267L mutant; type: binding
CB2R WT = CB2R WT (Homo sapiens, UniProt P34972); assay: [3H]CP55,940 displacement assay, CB2R WT; type: binding; details: for percentage specific [3H]CP55,940 binding: CB2R - WT, individual replicates
CB2R-I110^3.29A = CB2R-I110^3.29A (Homo sapiens, UniProt P34972, I110A); assay: [35S]GTPγS assay, CB2R I110A mutant; type: biochemical; details: for [35S]GTPγS binding: I1103.29A, individual replicates
CB1R-H270^ECL2L = CB1R-H270^ECL2L (Homo sapiens, UniProt P21554, H270L); assay: [3H]CP55,940 displacement assay, CB1R H270L mutant; type: binding
CB1R D266ECL2E = target: T2, CB1R D266ECL2E (Homo sapiens, UniProt P21554, D266E); assay: [35S]GTPγS assay, CB1R D266E mutant; type: biochemical
T2 construct: The WT CB1R and CB2R genes were subcloned into vector pcDNA3.1; HA signal peptide (N); expressed in transfected cells; host or cells: HEK293T (transient, membrane homogenates)

[3] = I110A mutant, HEK293T membranes

CB1R I267ECL2L, sequence (P21554 whole entry I267L): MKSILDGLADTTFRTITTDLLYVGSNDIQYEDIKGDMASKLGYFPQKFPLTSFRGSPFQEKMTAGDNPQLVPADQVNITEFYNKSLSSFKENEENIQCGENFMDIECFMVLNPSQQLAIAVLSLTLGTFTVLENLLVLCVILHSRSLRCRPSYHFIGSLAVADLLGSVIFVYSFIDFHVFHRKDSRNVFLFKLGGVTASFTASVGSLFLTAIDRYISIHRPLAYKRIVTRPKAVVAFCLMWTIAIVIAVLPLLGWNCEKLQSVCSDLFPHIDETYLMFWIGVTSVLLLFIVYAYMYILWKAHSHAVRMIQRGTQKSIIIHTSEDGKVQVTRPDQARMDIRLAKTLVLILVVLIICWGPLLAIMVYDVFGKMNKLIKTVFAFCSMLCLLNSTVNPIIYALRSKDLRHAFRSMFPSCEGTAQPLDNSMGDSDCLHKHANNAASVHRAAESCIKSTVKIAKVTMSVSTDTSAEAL
T1 sequence (P21554 whole entry): as the sequence (P21554 whole entry I267L) above, with L267I counted along it
CB2R WT, sequence (P34972 whole entry): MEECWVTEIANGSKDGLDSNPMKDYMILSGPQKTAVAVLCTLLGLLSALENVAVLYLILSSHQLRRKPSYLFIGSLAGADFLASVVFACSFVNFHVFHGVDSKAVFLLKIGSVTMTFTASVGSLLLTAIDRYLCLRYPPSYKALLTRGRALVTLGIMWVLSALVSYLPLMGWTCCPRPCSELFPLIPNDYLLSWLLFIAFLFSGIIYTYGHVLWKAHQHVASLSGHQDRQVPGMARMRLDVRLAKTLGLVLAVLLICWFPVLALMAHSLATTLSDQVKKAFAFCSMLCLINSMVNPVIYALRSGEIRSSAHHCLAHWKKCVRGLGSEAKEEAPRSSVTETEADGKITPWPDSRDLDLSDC
CB1R-L359^6.51V, sequence (P21554 whole entry L359V): as the sequence (P21554 whole entry I267L) above, with L267I, L359V counted along it
CB2R-I110^3.29A, sequence (P34972 whole entry I110A): as the sequence (P34972 whole entry) above, with I110A counted along it
CB1R-H270^ECL2L, sequence (P21554 whole entry H270L): as the sequence (P21554 whole entry I267L) above, with L267I, H270L counted along it
CB2R-Quadruple^TM1,7, sequence (P34972 whole entry K33Q/V36I/C40S/K279T): as the sequence (P34972 whole entry) above, with K33Q, V36I, C40S, K279T counted along it
CB2R-S285^7.39A, sequence (P34972 whole entry S285A): as the sequence (P34972 whole entry) above, with S285A counted along it
T2 sequence (P21554 whole entry D266E): as the sequence (P21554 whole entry I267L) above, with D266E, L267I counted along it
CB2R-E181^ECL2D, sequence (P34972 whole entry E181D): as the sequence (P34972 whole entry) above, with E181D counted along it

CC(C)CN1C(=O)CN(Cc2ccc(-c3ccc(F)c(CNC4CCOCC4)n3)cc2)C1=O [LEI-102, 1-(4-(5-fluoro-6-(((tetrahydro-2H-pyran-4-yl)amino)methyl)pyridin-2-yl)benzyl)-3-isobutylimidazolidine-2,4-dione]
Agonist-mediated activation (CB1R-L359^6.51V; CB1R L359V, 10 µM agonist): 1.1 ± 0.1 fold over its basal
G protein activation, fold over its basal (CB1R-L359^6.51V; CB1R L3596.51V, individual replicates): 1.125 fold over its basal and 1.294 fold over its basal and 0.998 fold over its basal
EC50 (CB2R-S285^7.39A; HEK293T membranes): 501 nM
pEC50 (CB2R-S285^7.39A; HEK293T membranes): no significant effect
Emax (%) (CB2R-S285^7.39A; at 10 µM compared to WT): 45 ± 8%
Ki (CB2R-Quadruple^TM1,7; CB2R Quadruple TM1,7 mutant, <5 when curve fit not finished): 158 nM
percentage specific [3H]CP55,940 binding (CB2R-Quadruple^TM1,7; log [ligand] (M) -5): 5.19% and 45.81% and -26.38%
percentage specific [3H]CP55,940 binding (CB2R-Quadruple^TM1,7; log [ligand] (M) -6): 60.64% and 32.84% and -34.85%
percentage specific [3H]CP55,940 binding (CB2R-Quadruple^TM1,7; log [ligand] (M) -7): 75.38% and 92.54% and 80.13%
percentage specific [3H]CP55,940 binding (CB2R-Quadruple^TM1,7; log [ligand] (M) -8): 120.94% and 110.56% and 172.31%
percentage specific [3H]CP55,940 binding (CB2R-Quadruple^TM1,7; log [ligand] (M) -9): 139.03% and 122.04% and 167.10%
percentage specific [3H]CP55,940 binding (CB2R-Quadruple^TM1,7; log [ligand] (M) -10): 103.18% and 81.86% and 136.81%
EC50 (CB2R-E181^ECL2D; <5 when curve fit not finished): 126 nM
Emax (%) (CB2R-E181^ECL2D; at 10 µM compared to WT): 28 ± 13%
Agonist-mediated activation (hCB1R WT [1]; 10 µM agonist): 1.0 ± 0.1 fold over its basal
G protein activation, fold over its basal (hCB1R WT [1]; individual replicates): 0.954 fold over its basal and 1.145 fold over its basal and 0.987 fold over its basal
percentage specific [3H]CP55,940 binding (hCB1R WT [2]; CB1R - WT, 10 µM ligand, replicates 1-3): 72.08 percentage and 95.14 percentage and 82.84 percentage
Displacement (%) of [3H]CP55,940 (hCB1R WT [2]; CB1R WT, 10 µM compound): 17 ± 7%
binding to CB1R (hCB1R WT [2]; [3H]CP55,940 displacement): did not bind
selectivity (CB2R over CB1R) (hCB1R WT [2]; binding, CB2R vs CB1R): at least 1000 fold
percentage specific [3H]CP55,940 binding (CB1R I267ECL2L; CB1R I267ECL2L, 10 µM ligand, replicates 1-3): 70.66 percentage and 79.50 percentage and 75.81 percentage
Displacement (%) of [3H]CP55,940 (CB1R I267ECL2L; CB1R I267L, 10 µM compound): 25 ± 3%
percentage specific [3H]CP55,940 binding (CB2R WT; log [ligand] (M) -5): 11.20% and 5.48% and 13.91%
percentage specific [3H]CP55,940 binding (CB2R WT; log [ligand] (M) -6): 40.37% and 13.48% and 13.16%
percentage specific [3H]CP55,940 binding (CB2R WT; log [ligand] (M) -7): 87.52% and 46.85% and 48.46%
percentage specific [3H]CP55,940 binding (CB2R WT; log [ligand] (M) -8): 156.63% and 87.43% and 104.52%
percentage specific [3H]CP55,940 binding (CB2R WT; log [ligand] (M) -9): 143.94% and 83.15% and 100.75%
percentage specific [3H]CP55,940 binding (CB2R WT; log [ligand] (M) -10): 162.62% and 107.24% and 130.29%
Ki (CB2R WT; read-out: pKi (converted)): 31.6 nM
EC50 (CB2R-I110^3.29A; [3]): 100 nM
pEC50 (CB2R-I110^3.29A; [3]): no significant effect
Emax (%) (CB2R-I110^3.29A; I110A mutant, at 10 µM compared to WT): 36 ± 13%
[35S]GTPγS binding (CB2R-I110^3.29A; log [ligand] (M) -5): 61.30 percentage of WT and 18.20 percentage of WT and 29.13 percentage of WT
[35S]GTPγS binding (CB2R-I110^3.29A; log [ligand] (M) -6): 35.42 percentage of WT and 6.50 percentage of WT and 8.34 percentage of WT
[35S]GTPγS binding (CB2R-I110^3.29A; log [ligand] (M) -7): 35.70 percentage of WT and -4.40 percentage of WT and 26.26 percentage of WT
[35S]GTPγS binding (CB2R-I110^3.29A; log [ligand] (M) -8): 11.80 percentage of WT and -18.30 percentage of WT and 10.49 percentage of WT
[35S]GTPγS binding (CB2R-I110^3.29A; log [ligand] (M) -9): -6.30 percentage of WT and 0.70 percentage of WT and 0.20 percentage of WT
[35S]GTPγS binding (CB2R-I110^3.29A; log [ligand] (M) -10): 15.50 percentage of WT and -9.30 percentage of WT and 14.53 percentage of WT
percentage specific [3H]CP55,940 binding (CB1R-H270^ECL2L; CB1R H270ECL2L, 10 µM ligand, replicates 1-3): 43.52 percentage and 52.40 percentage and 62.26 percentage
Displacement (%) of [3H]CP55,940 (CB1R-H270^ECL2L; CB1R H270L, 10 µM compound): 47 ± 5%
Agonist-mediated activation (CB1R D266ECL2E; CB1R D266E, 10 µM agonist): 1.1 ± 0.1 fold over its basal
G protein activation, fold over its basal (CB1R D266ECL2E; CB1R D266ECL2E, individual replicates): 1.059 fold over its basal and 1.264 fold over its basal and 1.015 fold over its basal
